{"source": "patent US20240016788A1", "about": "“PHARMACEUTICAL COMPOSITION FOR PREVENTING OR TREATING DIABETIC AND POSTMENOPAUSAL OSTEOPOROSIS, CONTAINING ADIPORON” (PnP Biopharm Co., Ltd., priority 2020, published 2024)", "format_in_all_cases": "in vivo", "key": {"[1]": {"tested_on": "ovariectomized C57BL/6 mice", "experiment": "Micro-CT of ilium (femur) and lumbar vertebra 5, ovariectomized mice", "conditions": "6 weeks", "method": "7 weeks after ovariectomization or sham surgery of 7-week-old C57BL/6 mice, normal feed group (adiporon non-administered group; control group) administration group, 2.5 mg/kg day or 25 mg/kg day, respectively Feed comprising adiporon was consumed for 6 weeks from 14 weeks of age. Body weight was measured every week during the experiment period, and the experiment was conducted after 6 weeks of administration. The imaging was performed with micro-CT (Skyscan 1172, Belgium), the tube voltage was 60 kV, the tube current was 167 uA, 0.5 mm aluminum filtration was used, and the pixel size was 5.9 μm. For the shooting angle, a 2-dimensional image was reconstructed with Nrecon Reconstruction (Skyscan, Belgium). For 3D image analysis, CTAn (Skyscan, Belgium) was used, images were obtained by rotating 360°, and exposure time was 440 ms. A total of 7 types of indicators were used in this invention. BMD (bone mineral density, bone density) was measured based on phantoms of 0.25 g/cm^3 and 0.75 g/cm^3. BV/TV (Bone volume/Total volume, percent bone volume, %) is the ratio of voxels representing the solid region out of the total voxels present in the binarized and surfaced volume of interest, and it means the ratio occupied by bone trabeculae within the volume of interest, and i.s (Interception surfaces, mm2) means the generation of new bone. i.s (Interception surfaces, mm^2) means the creation of new bone. BS/BV (Bone surface/Bone volume, bone specific surface, mm^−1) is the ratio of the voxel surface area to the number of voxels in the binarized solid region within the volume of interest and it means the ratio of the surface area of the trabecular bone to the volume of the trabecular bone. The lower the value, the higher the bone strength. Tb.Th (trabecular thickness, mm) is obtained by averaging the diameters of these spheres, after placing a sphere comprising the corresponding voxel for each voxel representing the solid region within the volume of interest so that the size of the sphere is the largest that includes only the solid region and it means the average thickness of the trabecular bone. After making it possible, it is obtained by averaging the diameters of these spheres, which means the average thickness of the trabecular bone. In the same way, using Tb.Sp (trabecular separation, mm), the average length between trabecular lines and Tb.N (trabecular number, mm^−1) were used to obtain the average number of trabecular lines."}, "[2]": {"tested_on": "type 2 diabetic db/db mice", "experiment": "Body weight, blood biochemistry and 24-hour urine oxidative stress in diabetic osteoporosis model db/db mice", "method": "A leptin receptor-defective type 2 diabetic animal model (db/db mice) and a normal control group (db/m mice) were used, and the experiment was performed by dividing into 4 groups as follows: non-diabetic control group (dm cont, n=8), non-diabetic adiporon treatment group (dm+AdipoR, n=8), diabetic control group (db cont, n=8) and diabetic adiporon treatment group (db+AdipoR, n=8). The control group was fed a normal diet, and the adiporon treatment group was fed a diet comprising adiporon (30 mg/kg/day) for 4 weeks from 16 weeks of age. During the experiment, body weight was measured every week, fasting blood glucose was measured using an Accu-Chek meter (Roche Diagnostics, St. Louis, MO) every 2 weeks after blood was collected from the tail vein, and glycated hemoglobin (HbA1c) was measured every 4 weeks using a […] automatic analyzer (Bayer healthcare LLC, IN) after blood was collected from the tail vein. The temperature and humidity of the breeding room were maintained at 20˜25° C. and 50˜60%, respectively, and the lights were turned on and off at 12-hour intervals. In both experiments, blood collected from each mouse was allowed to stand at room temperature for 30 minutes, and then centrifuged at 3000 rpm for 15 minutes to obtain serum. Blood levels of tartrate-resistant acid phosphatase (TRAP/ACP5) and osterocalcin concentration were measured by ELISA. In addition, 8-hydroxy-deoxyguanosine, a DNA damage marker caused by oxidative stress, and isoprostane, a marker of oxidative stress caused by lipid peroxidation caused by free fatty acids, and deoxypyridinoline (DPP), which indicates the function of osteoclasts, were measured in 24-hour urine concentrations by ELISA method."}, "[3]": {"tested_on": "ovariectomized C57BL/6 mice", "experiment": "Serum ACP5/TRAP, osteocalcin and urine deoxypyridinoline by ELISA, ovariectomized mice", "conditions": "for Increased concentration of deoxypyridinoline in urine: P<0.05", "method": "7 weeks after ovariectomization or sham surgery of 7-week-old C57BL/6 mice, normal feed group (adiporon non-administered group; control group) administration group, 2.5 mg/kg day or 25 mg/kg day, respectively Feed comprising adiporon was consumed for 6 weeks from 14 weeks of age. Body weight was measured every week during the experiment period, and the experiment was conducted after 6 weeks of administration. In both experiments, blood collected from each mouse was allowed to stand at room temperature for 30 minutes, and then centrifuged at 3000 rpm for 15 minutes to obtain serum. Blood levels of tartrate-resistant acid phosphatase (TRAP/ACP5) and osterocalcin concentration were measured by ELISA. In addition, 8-hydroxy-deoxyguanosine, a DNA damage marker caused by oxidative stress, and isoprostane, a marker of oxidative stress caused by lipid peroxidation caused by free fatty acids, and deoxypyridinoline (DPP), which indicates the function of osteoclasts, were measured in 24-hour urine concentrations by ELISA method."}, "[4]": {"conditions": "vertebrae (lumbar vertebrae 5), adiporon 2.5 mg/kg day"}, "[5]": {"conditions": "vertebrae (lumbar vertebrae 5), adiporon 25 mg/kg day"}, "[6]": {"conditions": "db/db mice (type 2 diabetic), adiporon 30 mg/kg/day in diet for 4 weeks, mean ± SD"}, "[7]": {"conditions": "db/db mice, adiporon 30 mg/kg/day, 4 weeks, result in words"}, "[8]": {"conditions": "adiporon 2.5 or 25 mg/kg day, dose not distinguished, ELISA"}}}
{"smiles": "Cl.O=C(COc1ccc(C(=O)c2ccccc2)cc1)NC1CCN(Cc2ccccc2)CC1", "note": "[adiporon]", "values": [{"measurement": "Bone mineral density indicator (micro-CT)", "setting": "[1]; ilium, adiporon 2.5 mg/kg day", "result": "increased and improved"}, {"measurement": "Bone surface indicator (micro-CT)", "setting": "[1]; ilium, adiporon 2.5 mg/kg day", "result": "increased and improved"}, {"measurement": "Bone volume indicator (micro-CT)", "setting": "[1]; ilium, adiporon 2.5 mg/kg day", "result": "increased and improved"}, {"measurement": "Trabecular number indicator (micro-CT)", "setting": "[1]; ilium, adiporon 2.5 mg/kg day", "result": "increased and improved"}, {"measurement": "Trabecular thickness indicator (micro-CT)", "setting": "[1]; ilium, adiporon 2.5 mg/kg day", "result": "increased and improved"}, {"measurement": "Bone mineral density indicator (micro-CT)", "setting": "[1]; ilium, adiporon 25 mg/kg day", "result": "increased and improved"}, {"measurement": "Bone surface indicator (micro-CT)", "setting": "[1]; ilium, adiporon 25 mg/kg day", "result": "increased and improved"}, {"measurement": "Bone volume indicator (micro-CT)", "setting": "[1]; ilium, adiporon 25 mg/kg day", "result": "increased and improved"}, {"measurement": "Trabecular number indicator (micro-CT)", "setting": "[1]; ilium, adiporon 25 mg/kg day", "result": "increased and improved"}, {"measurement": "Trabecular thickness indicator (micro-CT)", "setting": "[1]; ilium, adiporon 25 mg/kg day", "result": "increased and improved"}, {"measurement": "Bone mineral density indicator (micro-CT)", "setting": "[1]; [4]", "result": "increased and improved"}, {"measurement": "Bone surface indicator (micro-CT)", "setting": "[1]; [4]", "result": "increased and improved"}, {"measurement": "Bone volume indicator (micro-CT)", "setting": "[1]; [4]", "result": "increased and improved"}, {"measurement": "Trabecular number indicator (micro-CT)", "setting": "[1]; [4]", "result": "increased and improved"}, {"measurement": "Trabecular thickness indicator (micro-CT)", "setting": "[1]; [4]", "result": "increased and improved"}, {"measurement": "Bone mineral density indicator (micro-CT)", "setting": "[1]; [5]", "result": "increased and improved"}, {"measurement": "Bone surface indicator (micro-CT)", "setting": "[1]; [5]", "result": "increased and improved"}, {"measurement": "Bone volume indicator (micro-CT)", "setting": "[1]; [5]", "result": "increased and improved"}, {"measurement": "Trabecular number indicator (micro-CT)", "setting": "[1]; [5]", "result": "increased and improved"}, {"measurement": "Trabecular thickness indicator (micro-CT)", "setting": "[1]; [5]", "result": "increased and improved"}, {"measurement": "Body wt", "setting": "[2]; [6]", "result": "53 ± 4.8", "unit": "g"}, {"measurement": "Urinary 8-OHDG", "setting": "[2]; [6]", "result": "74.5 ± 19.6", "unit": "ng/24 h"}, {"measurement": "Urinary isoprostane", "setting": "[2]; [6]", "result": "19.3 ± 9.4", "unit": "ng/24 h"}, {"measurement": "Changes of body weight, blood glucose, glycated hemoglobin, blood total cholesterol, triglyceride, free fatty acid and blood adiponectin", "setting": "[2]; db/db mice vs db/m, adiporon 30 mg/kg/day, 4 weeks, result in words", "result": "restored"}, {"measurement": "24-hour urine concentration of 8-hydroxy-deoxyguanosine (increase in db/db)", "setting": "[2]; [7]", "result": "improved the index increase"}, {"measurement": "24-hour urine concentration of isoprostane (increase in db/db)", "setting": "[2]; [7]", "result": "improved the index increase"}, {"measurement": "Increased concentration of deoxypyridinoline in urine", "setting": "[3]; adiporon 2.5 mg/kg day vs not administered", "result": "significantly reduced"}, {"measurement": "Increased concentration of deoxypyridinoline in urine", "setting": "[3]; adiporon 25 mg/kg day vs not administered", "result": "significantly reduced"}, {"measurement": "Decreased serum osteocalcin concentration", "setting": "[3]; [8]", "result": "reversed"}, {"measurement": "Serum ACP5/TRAP concentrations", "setting": "[3]; [8]", "result": "no such change"}]}
